Reference: ChEMBL document CHEMBL3745697, “Identification of azabenzimidazoles as potent JAK1 selective inhibitors” (Bioorg Med Chem Lett, 2016)
Active and inactive are the calls of the source. The rule behind the calls is not given here.

Legend:
[1] = target: Cyclin-dependent kinase 2/cyclin E1 (Homo sapiens, UniProt P24941); assay: Inhibition of N-terminal 6His-tagged human recombinant full length CDK2 (1 to 304 residues)/Cyclin E1 (1 to 410 residues) expressed in insect cells using FL-Ahx-QSPKKG-CONH2 as substrate by microfluidic capillary electrophoresis method
[2] = target: T1, Tyrosine-protein kinase JAK1 (Homo sapiens, UniProt P23458); assay: Inhibition of JAK1 in human NCI-H1975 cells assessed as reduction in STAT3 phosphorylation at 0.003 to 3 uM after 2 hrs by Western blot analysis; type: cell-based
[3] = Cell cycle arrest in human SW620 cells assessed as multi-nuclear cells at 10 uM after 24 hrs by propidium iodide staining-based flow cytometric analysis (reference value: 5%); type: functional; conditions: SW-620
[4] = target: T1, Tyrosine-protein kinase JAK1; assay: Inhibition of N-terminal GST-fused human recombinant JAK1 (866 to 1154 residues) expressed in insect cells using FITC-C6-KKHTDDGYMPMSPGVA-NH2 as substrate by microfluidic capillary electrophoresis method
[5] = target: T2, Tyrosine-protein kinase JAK2 (Homo sapiens, UniProt O60674); assay: Inhibition of JAK2 in human HEL 92.1.7 cells assessed as reduction in STAT5 phosphorylation after 2 hrs by Western blot analysis; type: cell-based
[6] = Cell cycle arrest in human SW620 cells assessed as accumulation at S phase at 1 uM after 24 hrs by propidium iodide staining-based flow cytometric analysis (reference value: 13.9%); type: functional; conditions: SW-620
[7] = target: Aurora kinase B (Homo sapiens, UniProt Q96GD4); assay: Inhibition of GST-INCENP activated N-terminal 6His-tagged human recombinant full length Aurora B (1 to 344 residues) expressed in baculovirus expression system using 5FAM-LRRASLG as substrate by microfluidic capillary electrophoresis method
[8] = Cell cycle arrest in human SW620 cells assessed as accumulation at G1 phase at 10 uM after 24 hrs by propidium iodide staining-based flow cytometric analysis (reference value: 61.4%); type: functional; conditions: SW-620
[9] = Cell cycle arrest in human SW620 cells assessed as multi-nuclear cells at 1 uM after 24 hrs by propidium iodide staining-based flow cytometric analysis (reference value: 5%); type: functional; conditions: SW-620
[10] = target: Non-receptor tyrosine-protein kinase TYK2 (Homo sapiens, UniProt P29597); assay: Inhibition of N-terminal 6His-tagged human recombinant Tyk2
[11] = Cell cycle arrest in human SW620 cells assessed as accumulation at G1 phase at 1 uM after 24 hrs by propidium iodide staining-based flow cytometric analysis (reference value: 61.4%); type: functional; conditions: SW-620
[12] = Cell cycle arrest in human SW620 cells assessed as accumulation at G2/M phase at 1 uM after 24 hrs by propidium iodide staining-based flow cytometric analysis (reference value: 17.4%); type: functional; conditions: SW-620
[13] = Cell cycle arrest in human SW620 cells assessed as accumulation at Sub G1 phase at 1 uM after 24 hrs by propidium iodide staining-based flow cytometric analysis (reference value: 1.6%); type: functional; conditions: SW-620
[14] = target: T3, Tyrosine-protein kinase JAK3 (Homo sapiens, UniProt P52333); assay: Inhibition of N-terminal GST-fused recombinant JAK3 (781 to 1124 residues) (unknown origin) expressed in insect cells using 5FAM-GEEPLYWSFPAKKK-NH2 as substrate by microfluidic capillary electrophoresis method
T3 sequence (P52333 whole entry): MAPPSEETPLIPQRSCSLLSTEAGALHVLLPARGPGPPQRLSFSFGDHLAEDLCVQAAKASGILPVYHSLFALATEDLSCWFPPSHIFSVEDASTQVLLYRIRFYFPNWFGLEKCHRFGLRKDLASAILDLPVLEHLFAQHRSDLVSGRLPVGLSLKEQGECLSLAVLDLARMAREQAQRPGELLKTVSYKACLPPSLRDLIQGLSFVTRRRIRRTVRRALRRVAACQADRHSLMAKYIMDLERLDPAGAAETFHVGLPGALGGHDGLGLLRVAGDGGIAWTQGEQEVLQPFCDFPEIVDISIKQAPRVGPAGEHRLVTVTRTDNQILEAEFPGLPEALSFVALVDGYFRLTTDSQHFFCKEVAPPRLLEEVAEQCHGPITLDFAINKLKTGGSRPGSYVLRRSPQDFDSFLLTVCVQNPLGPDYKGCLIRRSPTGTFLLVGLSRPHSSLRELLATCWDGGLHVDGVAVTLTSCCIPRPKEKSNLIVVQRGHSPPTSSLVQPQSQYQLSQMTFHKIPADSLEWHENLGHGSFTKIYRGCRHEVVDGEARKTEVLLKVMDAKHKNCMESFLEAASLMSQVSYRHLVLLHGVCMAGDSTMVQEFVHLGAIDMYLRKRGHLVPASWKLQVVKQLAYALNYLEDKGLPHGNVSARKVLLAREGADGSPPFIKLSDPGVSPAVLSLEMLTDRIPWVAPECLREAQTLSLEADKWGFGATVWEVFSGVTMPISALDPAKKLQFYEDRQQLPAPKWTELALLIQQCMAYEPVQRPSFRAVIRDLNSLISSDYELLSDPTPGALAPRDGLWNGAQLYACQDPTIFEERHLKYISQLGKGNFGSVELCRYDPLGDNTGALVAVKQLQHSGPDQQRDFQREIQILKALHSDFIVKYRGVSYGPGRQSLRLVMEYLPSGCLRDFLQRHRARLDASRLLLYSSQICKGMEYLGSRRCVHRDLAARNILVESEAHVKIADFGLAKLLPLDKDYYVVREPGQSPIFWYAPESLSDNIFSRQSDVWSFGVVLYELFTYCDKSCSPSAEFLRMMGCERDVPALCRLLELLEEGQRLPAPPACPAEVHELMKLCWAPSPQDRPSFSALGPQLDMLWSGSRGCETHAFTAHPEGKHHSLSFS

[15] = Cell cycle arrest in human SW620 cells assessed as accumulation at Sub G1 phase at 10 uM after 24 hrs by propidium iodide staining-based flow cytometric analysis (reference value: 1.6%); type: functional; conditions: SW-620
[16] = system: Mus musculus; assay: Inhibition of JAK1-mediated STAT3 phosphorylation in human NCI-H1975 cells xenografted in NCr nude mouse at 200 mg/kg, po administered as single dose after 8 hrs by Western blot analysis; type: functional, organism-based
[17] = target: T1, Tyrosine-protein kinase JAK1; assay: Inhibition of JAK1 in human NCI-H1975 cells assessed as reduction in STAT3 phosphorylation after 2 hrs; type: cell-based
[18] = Cell cycle arrest in human SW620 cells assessed as accumulation at S phase at 10 uM after 24 hrs by propidium iodide staining-based flow cytometric analysis (reference value: 13.9%); type: functional; conditions: SW-620
[19] = target: T2, Tyrosine-protein kinase JAK2; assay: Inhibition of N-terminal GST-fused recombinant JAK2 (831 to 1132 residues) (unknown origin) expressed in insect cells using 5FAM-GEEPLYWSFPAKKK-NH2 as substrate by microfluidic capillary electrophoresis method
[20] = Cell cycle arrest in human SW620 cells assessed as accumulation at G2/M phase at 10 uM after 24 hrs by propidium iodide staining-based flow cytometric analysis (reference value: 17.4%); type: functional; conditions: SW-620
[21] = system: Mus musculus; assay: Inhibition of JAK1-mediated STAT3 phosphorylation in human NCI-H1975 cells xenografted in NCr nude mouse at 200 mg/kg, po administered as single dose after 1.5 hrs by Western blot analysis; type: functional

T1 sequence (P23458 whole entry): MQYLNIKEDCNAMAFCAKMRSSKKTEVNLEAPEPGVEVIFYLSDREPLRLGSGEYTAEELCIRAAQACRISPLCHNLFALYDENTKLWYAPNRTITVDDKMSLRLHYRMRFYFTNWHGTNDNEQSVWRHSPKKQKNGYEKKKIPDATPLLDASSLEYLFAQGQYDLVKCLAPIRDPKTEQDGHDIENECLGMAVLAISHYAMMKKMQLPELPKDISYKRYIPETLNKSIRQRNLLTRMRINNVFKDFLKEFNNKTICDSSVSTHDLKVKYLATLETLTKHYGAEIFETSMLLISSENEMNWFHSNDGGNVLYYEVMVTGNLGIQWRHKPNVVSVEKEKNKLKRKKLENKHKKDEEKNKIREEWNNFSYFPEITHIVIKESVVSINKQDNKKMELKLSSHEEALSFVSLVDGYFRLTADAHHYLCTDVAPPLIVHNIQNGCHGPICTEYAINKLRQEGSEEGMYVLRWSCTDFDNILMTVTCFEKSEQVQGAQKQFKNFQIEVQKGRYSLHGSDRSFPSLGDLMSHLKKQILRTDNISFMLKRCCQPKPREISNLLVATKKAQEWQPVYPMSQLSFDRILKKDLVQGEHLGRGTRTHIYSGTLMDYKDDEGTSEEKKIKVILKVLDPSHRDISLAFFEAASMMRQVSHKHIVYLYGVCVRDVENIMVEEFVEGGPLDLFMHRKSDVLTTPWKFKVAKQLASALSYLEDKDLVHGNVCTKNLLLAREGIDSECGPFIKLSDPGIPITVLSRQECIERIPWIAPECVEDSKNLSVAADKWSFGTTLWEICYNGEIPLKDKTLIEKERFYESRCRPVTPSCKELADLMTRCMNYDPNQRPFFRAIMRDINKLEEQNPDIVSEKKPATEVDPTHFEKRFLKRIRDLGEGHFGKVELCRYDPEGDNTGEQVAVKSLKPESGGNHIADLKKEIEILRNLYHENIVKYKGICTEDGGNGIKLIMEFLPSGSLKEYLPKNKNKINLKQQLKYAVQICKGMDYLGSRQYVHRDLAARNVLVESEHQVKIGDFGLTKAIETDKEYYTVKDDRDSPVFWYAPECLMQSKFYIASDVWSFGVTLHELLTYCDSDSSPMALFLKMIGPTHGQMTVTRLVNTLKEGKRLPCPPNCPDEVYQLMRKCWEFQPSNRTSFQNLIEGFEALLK
T2 sequence (O60674 whole entry): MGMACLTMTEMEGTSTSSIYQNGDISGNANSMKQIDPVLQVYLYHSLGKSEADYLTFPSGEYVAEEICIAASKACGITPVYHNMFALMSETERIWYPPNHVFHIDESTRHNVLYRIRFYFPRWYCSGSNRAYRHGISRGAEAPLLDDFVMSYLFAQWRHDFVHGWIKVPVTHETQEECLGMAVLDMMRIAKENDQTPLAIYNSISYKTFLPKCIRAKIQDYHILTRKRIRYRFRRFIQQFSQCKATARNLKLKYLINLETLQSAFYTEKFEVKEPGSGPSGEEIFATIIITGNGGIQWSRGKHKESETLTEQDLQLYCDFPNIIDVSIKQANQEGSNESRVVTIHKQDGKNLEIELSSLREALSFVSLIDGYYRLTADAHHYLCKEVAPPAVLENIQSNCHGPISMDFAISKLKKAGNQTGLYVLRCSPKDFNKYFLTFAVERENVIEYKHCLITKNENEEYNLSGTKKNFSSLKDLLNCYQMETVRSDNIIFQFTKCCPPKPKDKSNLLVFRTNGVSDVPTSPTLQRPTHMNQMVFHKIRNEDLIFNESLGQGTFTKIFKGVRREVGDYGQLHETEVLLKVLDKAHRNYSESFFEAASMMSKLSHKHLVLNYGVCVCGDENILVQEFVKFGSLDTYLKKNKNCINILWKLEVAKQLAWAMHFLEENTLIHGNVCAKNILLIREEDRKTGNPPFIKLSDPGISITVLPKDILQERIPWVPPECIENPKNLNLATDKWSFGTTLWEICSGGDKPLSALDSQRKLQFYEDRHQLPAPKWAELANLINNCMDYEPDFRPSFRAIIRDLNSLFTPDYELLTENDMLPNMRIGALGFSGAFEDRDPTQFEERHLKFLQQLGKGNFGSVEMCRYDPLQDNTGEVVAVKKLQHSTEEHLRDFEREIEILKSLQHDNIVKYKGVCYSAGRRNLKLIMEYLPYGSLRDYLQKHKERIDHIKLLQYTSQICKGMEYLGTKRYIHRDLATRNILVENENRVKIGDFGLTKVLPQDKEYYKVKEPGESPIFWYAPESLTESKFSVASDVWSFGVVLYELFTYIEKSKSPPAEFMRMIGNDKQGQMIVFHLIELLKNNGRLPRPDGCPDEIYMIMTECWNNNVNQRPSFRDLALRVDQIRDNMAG
Sequence of Aurora kinase B (Q96GD4 whole entry, the tested form may be a part): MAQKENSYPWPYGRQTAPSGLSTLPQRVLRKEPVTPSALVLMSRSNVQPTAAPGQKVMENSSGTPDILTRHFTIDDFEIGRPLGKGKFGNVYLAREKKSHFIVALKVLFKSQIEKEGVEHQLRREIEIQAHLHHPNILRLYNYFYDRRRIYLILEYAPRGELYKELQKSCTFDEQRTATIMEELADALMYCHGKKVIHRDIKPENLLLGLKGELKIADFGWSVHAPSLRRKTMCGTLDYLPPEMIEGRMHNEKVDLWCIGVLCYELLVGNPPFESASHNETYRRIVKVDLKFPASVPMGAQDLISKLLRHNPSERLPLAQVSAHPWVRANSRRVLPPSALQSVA
Sequence of Non-receptor tyrosine-protein kinase TYK2 (P29597 whole entry): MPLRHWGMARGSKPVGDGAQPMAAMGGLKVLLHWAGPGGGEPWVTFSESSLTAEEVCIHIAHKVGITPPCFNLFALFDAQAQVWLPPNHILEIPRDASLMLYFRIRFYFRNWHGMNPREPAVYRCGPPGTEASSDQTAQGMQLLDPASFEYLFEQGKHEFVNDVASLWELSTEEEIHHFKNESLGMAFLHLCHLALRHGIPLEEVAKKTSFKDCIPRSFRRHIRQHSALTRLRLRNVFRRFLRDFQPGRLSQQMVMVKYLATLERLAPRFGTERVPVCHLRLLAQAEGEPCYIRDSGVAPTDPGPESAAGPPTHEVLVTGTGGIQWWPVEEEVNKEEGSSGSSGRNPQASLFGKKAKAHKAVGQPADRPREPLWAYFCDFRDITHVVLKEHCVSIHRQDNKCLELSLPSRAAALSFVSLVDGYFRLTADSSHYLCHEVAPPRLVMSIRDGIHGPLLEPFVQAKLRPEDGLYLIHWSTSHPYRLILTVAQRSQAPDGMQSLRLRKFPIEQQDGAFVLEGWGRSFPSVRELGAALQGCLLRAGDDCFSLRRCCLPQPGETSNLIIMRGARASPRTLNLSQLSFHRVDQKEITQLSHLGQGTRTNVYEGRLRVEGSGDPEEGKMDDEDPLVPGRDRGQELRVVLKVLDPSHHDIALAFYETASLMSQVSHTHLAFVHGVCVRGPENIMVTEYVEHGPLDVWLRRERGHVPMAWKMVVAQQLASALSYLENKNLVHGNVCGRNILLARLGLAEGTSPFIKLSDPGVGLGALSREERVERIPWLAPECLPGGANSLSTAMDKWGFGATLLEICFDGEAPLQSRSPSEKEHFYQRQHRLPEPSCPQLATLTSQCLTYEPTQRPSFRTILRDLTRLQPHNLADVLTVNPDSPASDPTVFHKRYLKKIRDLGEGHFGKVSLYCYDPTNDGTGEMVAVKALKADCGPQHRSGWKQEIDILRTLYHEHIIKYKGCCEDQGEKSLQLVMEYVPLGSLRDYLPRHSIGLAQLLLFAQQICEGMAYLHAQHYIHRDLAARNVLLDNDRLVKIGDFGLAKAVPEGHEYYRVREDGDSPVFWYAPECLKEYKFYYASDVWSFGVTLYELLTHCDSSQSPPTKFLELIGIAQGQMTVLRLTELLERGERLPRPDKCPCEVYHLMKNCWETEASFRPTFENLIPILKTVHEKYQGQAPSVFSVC

IC50 [1]: 114 nM
inhibition [2]: Active
IC50 [4]: 22 nM
inhibition [5]: inactive
IC50 [7]: 132 nM
IC50 [10]: 28000 nM
IC50 [14]: 8300 nM
IC50 [17]: 39 nM
IC50 [19]: > 22000 nM
SMILES: COc1cc(F)c(-c2nc3c(NCC4CCNCC4)c(Cl)cnc3[nH]2)cc1OC
Activity [3]: 13.1%
Activity [6]: 6.5%
Activity [8]: 30.3%
Activity [9]: 7.9%
Activity [11]: 56.1%
Activity [12]: 27%
Activity [13]: 2.5%
Activity [15]: 10.8%
inhibition [16]: inactive
Activity [18]: 7%
Activity [20]: 38.9%
inhibition in vivo at 200 mg/kg [21]: 80%
